# Source: patent publication US20250026778A1 (TIUMBIO CO., LTD., priority 2021, published 2025)
# Target: T1, his-galectin-3 (Homo sapiens, UniProt P17931)
# T1 construct: purchased Abcam
# Test: TR-FRET assay (in vitro galectin-3 binding inhibitory activity test)
# Conditions: Table 2; compound at 20 μM; 60 nM his-galectin-3, 15 nM biotin-ASF; read-out: % Inhibitory activity (at 20 μM)
# Summary of the method: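 Compound is premixed with his-galectin-3 (60 nM final), then biotin-ASF (15 nM), Tb anti-His antibody (2 nM) and streptavidin-d2 (20 nM) are added. After at least 3.5 hours at RT in HEPES/NaCl buffer with Tween 20 and BSA, TR-FRET is read at 615/665 nm. DMSO serves as the uninhibited control, ASF omission as background.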
# T1 sequence (P17931 whole entry): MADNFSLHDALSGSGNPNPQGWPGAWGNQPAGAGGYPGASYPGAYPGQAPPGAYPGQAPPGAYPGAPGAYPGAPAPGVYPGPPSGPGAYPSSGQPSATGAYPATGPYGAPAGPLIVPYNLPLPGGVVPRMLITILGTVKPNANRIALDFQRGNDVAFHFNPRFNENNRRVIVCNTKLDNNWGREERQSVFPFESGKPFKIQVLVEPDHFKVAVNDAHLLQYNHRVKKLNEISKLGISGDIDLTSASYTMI
row,SMILES,inhibition at 20 µM [%]
1,"OC[C@H]1O[C@@]2(CCCN(c3ccc(Cl)cc3)C2)[C@H](O)[C@@H](n2cc(-c3cc(F)c(F)c(F)c3)nn2)[C@H]1O [Compound A224, (2R,3R,4S,5R,6R)-8-(4-chlorophenyl)-2-(hydroxymethyl)-4-(4-(3,4,5-trifluorophenyl)-1H-1,2,3-triazol-1-yl)-1-oxa-8-azaspiro[5.5]undecane-3,5-diol]",< 25
2,"OC[C@H]1O[C@@]2(CCCN(c3cccs3)C2)[C@H](O)[C@@H](n2cc(-c3cc(F)c(F)c(F)c3)nn2)[C@H]1O [Compound A225, (2R,3R,4S,5R,6R)-2-(hydroxymethyl)-8-(thiophen-2-yl)-4-(4-(3,4,5-trifluorophenyl)-1H-1,2,3-triazol-1-yl)-1-oxa-8-azaspiro[5.5]undecane-3,5-diol]",< 25
3,"O=C(c1ccc(Cl)cc1)N1CCC[C@]2(C1)O[C@H](CO)[C@H](O)[C@H](n1cc(-c3cc(F)c(F)c(F)c3)nn1)[C@H]2O [Compound A227, (4-chlorophenyl)((2R,3R,4S,5R,6R)-3,5-dihydroxy-2-(hydroxymethyl)-4-(4-(3,4,5-trifluorophenyl)-1H-1,2,3-triazol-1-yl)-1-oxa-8-azaspiro[5.5]undecan-8-yl)methanone]",< 25
4,"Cc1cc(C(=O)N[C@@H]2CCO[C@]23O[C@H](CO)[C@H](O)[C@H](n2cc(-c4cc(F)c(F)c(F)c4)nn2)[C@H]3O)c2cc(F)ccc2n1 [Compound A228, N-((4R,5S,7R,8R,9S,10R)-8,10-dihydroxy-7-(hydroxymethyl)-9-(4-(3,4,5-trifluorophenyl)-1H-1,2,3-triazol-1-yl)-1,6-dioxaspiro[4.5]decan-4-yl)-6-fluoro-2-methylquinoline-4-carboxamide]",> 75
5,"Cc1cc(C(=O)N[C@@H]2CCO[C@]23O[C@H](CO)[C@H](O)[C@H](n2cc(-c4cc(F)c(F)c(F)c4)nn2)[C@H]3O)c2cc(Cl)ccc2n1 [Compound A229, 6-chloro-N-((4R,5S,7R,8R,9S,10R)-8,10-dihydroxy-7-(hydroxymethyl)-9-(4-(3,4,5-trifluorophenyl)-1H-1,2,3-triazol-1-yl)-1,6-dioxaspiro[4.5]decan-4-yl)-2-methylquinoline-4-carboxamide]",> 75
6,"O=C(N[C@@H]1CCO[C@]12O[C@H](CO)[C@H](O)[C@H](n1cc(-c3cc(F)c(F)c(F)c3)nn1)[C@H]2O)c1cccc2occc12 [Compound A230, N-((4R,5S,7R,8R,9S,10R)-8,10-dihydroxy-7-(hydroxymethyl)-9-(4-(3,4,5-trifluorophenyl)-1H-1,2,3-triazol-1-yl)-1,6-dioxaspiro[4.5]decan-4-yl)benzofuran-4-carboxamide]",50 to 75
7,"Cc1cc(C(=O)N[C@@H]2CCO[C@]23O[C@H](CO)[C@H](O)[C@H](n2cc(-c4cc(F)c(F)c(F)c4)nn2)[C@H]3O)c2cc(Br)ccc2n1 [Compound A231, 6-bromo-N-((4R,5S,7R,8R,9S,10R)-8,10-dihydroxy-7-(hydroxymethyl)-9-(4-(3,4,5-trifluorophenyl)-1H-1,2,3-triazol-1-yl)-1,6-dioxaspiro[4.5]decan-4-yl)-2-methylquinoline-4-carboxamide]",> 75
8,"O=C(N[C@@H]1CCO[C@]12O[C@H](CO)[C@H](O)[C@H](n1cc(-c3cc(F)c(F)c(F)c3)nn1)[C@H]2O)c1c[nH]c2cccc(Cl)c12 [Compound A232, 4-chloro-N-((4R,5S,7R,8R,9S,10R)-8,10-dihydroxy-7-(hydroxymethyl)-9-(4-(3,4,5-trifluorophenyl)-1H-1,2,3-triazol-1-yl)-1,6-dioxaspiro[4.5]decan-4-yl)-1H-indole-3-carboxamide]",> 75
9,"Cn1cc(C(=O)N[C@@H]2CCO[C@]23O[C@H](CO)[C@H](O)[C@H](n2cc(-c4cc(F)c(F)c(F)c4)nn2)[C@H]3O)c2cc(Cl)ccc21 [Compound A233, 5-chloro-N-((4R,5S,7R,8R,9S,10R)-8,10-dihydroxy-7-(hydroxymethyl)-9-(4-(3,4,5-trifluorophenyl)-1H-1,2,3-triazol-1-yl)-1,6-dioxaspiro[4.5]decan-4-yl)-1-methyl-1H-indole-3-carboxamide]",50 to 75
10,"Cc1sc2ccccc2c1C(=O)N[C@@H]1CCO[C@]12O[C@H](CO)[C@H](O)[C@H](n1cc(-c3cc(F)c(F)c(F)c3)nn1)[C@H]2O [Compound A234, N-((4R,5S,7R,8R,9S,10R)-8,10-dihydroxy-7-(hydroxymethyl)-9-(4-(3,4,5-trifluorophenyl)-1H-1,2,3-triazol-1-yl)-1,6-dioxaspiro[4.5]decan-4-yl)-2-methylbenzo[b]thiophene-3-carboxamide]",> 75
11,"OC[C@H]1O[C@@]2(CCCO2)[C@H](O)[C@@H](n2cc(-c3cc(F)c(F)c(F)c3)cn2)[C@H]1O [Compound A237, (5S,7R,8R,9S,10R)-7-(hydroxymethyl)-9-(4-(3,4,5-trifluorophenyl)-1H-pyrazol-1-yl)-1,6-dioxaspiro[4.5]decane-8,10-diol]",25 to 50
12,"O=C(N[C@@H]1CCO[C@]12O[C@H](CO)[C@H](O)[C@H](n1cc(-c3cc(F)c(F)c(F)c3)cn1)[C@H]2O)c1cccc2ccc(Cl)cc12 [Compound A238, 7-chloro-N-((4R,5S,7R,8R,9S,10R)-8,10-dihydroxy-7-(hydroxymethyl)-9-(4-(3,4,5-trifluorophenyl)-1H-pyrazol-1-yl)-1,6-dioxaspiro[4.5]decan-4-yl)-1-naphthamide]",> 75
13,"Cc1cc(C(=O)N[C@@H]2CCO[C@]23O[C@H](CO)[C@H](O)[C@H](n2cc(-c4cc(F)c(F)c(F)c4)cn2)[C@H]3O)c2cc(Cl)ccc2n1 [Compound A239, 6-chloro-N-((4R,5S,7R,8R,9S,10R)-8,10-dihydroxy-7-(hydroxymethyl)-9-(4-(3,4,5-trifluorophenyl)-1H-pyrazol-1-yl)-1,6-dioxaspiro[4.5]decan-4-yl)-2-methylquinoline-4-carboxamide]",> 75
14,"Cc1ccc2ccccc2c1C(=O)N[C@@H]1CCO[C@]12O[C@H](CO)[C@H](O)[C@H](n1cc(-c3cc(F)c(F)c(F)c3)nn1)[C@H]2O [Compound A240, N-((4R,5S,7R,8R,9S,10R)-8,10-dihydroxy-7-(hydroxymethyl)-9-(4-(3,4,5-trifluorophenyl)-1H-1,2,3-triazol-1-yl)-1,6-dioxaspiro[4.5]decan-4-yl)-2-methyl-1-naphthamide]",50 to 75
15,"COc1cc(C(=O)N[C@@H]2CCO[C@]23O[C@H](CO)[C@H](O)[C@H](n2cc(-c4cc(F)c(F)c(F)c4)nn2)[C@H]3O)c2ccccc2c1 [Compound A241, N-((4R,5S,7R,8R,9S,10R)-8,10-dihydroxy-7-(hydroxymethyl)-9-(4-(3,4,5-trifluorophenyl)-1H-1,2,3-triazol-1-yl)-1,6-dioxaspiro[4.5]decan-4-yl)-3-methoxy-1-naphthamide]",> 75
16,"COc1ccc2ccccc2c1C(=O)N[C@@H]1CCO[C@]12O[C@H](CO)[C@H](O)[C@H](n1cc(-c3cc(F)c(F)c(F)c3)nn1)[C@H]2O [Compound A242, N-((4R,5S,7R,8R,9S,10R)-8,10-dihydroxy-7-(hydroxymethyl)-9-(4-(3,4,5-trifluorophenyl)-1H-1,2,3-triazol-1-yl)-1,6-dioxaspiro[4.5]decan-4-yl)-2-methoxy-1-naphthamide]",50 to 75
17,"Cc1ccc(C(=O)N[C@@H]2CCO[C@]23O[C@H](CO)[C@H](O)[C@H](n2cc(-c4cc(F)c(F)c(F)c4)nn2)[C@H]3O)c2ccccc12 [Compound A243, N-((4R,5S,7R,8R,9S,10R)-8,10-dihydroxy-7-(hydroxymethyl)-9-(4-(3,4,5-trifluorophenyl)-1H-1,2,3-triazol-1-yl)-1,6-dioxaspiro[4.5]decan-4-yl)-4-methyl-1-naphthamide]",> 75
18,"O=C(N[C@@H]1CCO[C@]12O[C@H](CO)[C@H](O)[C@H](n1cc(-c3cc(F)c(F)c(F)c3)nn1)[C@H]2O)c1cccc2cccnc12 [Compound A244, N-((4R,5S,7R,8R,9S,10R)-8,10-dihydroxy-7-(hydroxymethyl)-9-(4-(3,4,5-trifluorophenyl)-1H-1,2,3-triazol-1-yl)-1,6-dioxaspiro[4.5]decan-4-yl)quinoline-8-carboxamide]",50 to 75
19,"Cc1cc(C(=O)N[C@@H]2CCO[C@]23O[C@H](CO)[C@H](O)[C@H](n2cc(-c4cc(F)c(F)c(F)c4)nn2)[C@H]3O)c2cccnc2c1 [Compound A245, N-((4R,5S,7R,8R,9S,10R)-8,10-dihydroxy-7-(hydroxymethyl)-9-(4-(3,4,5-trifluorophenyl)-1H-1,2,3-triazol-1-yl)-1,6-dioxaspiro[4.5]decan-4-yl)-7-methylquinoline-5-carboxamide]",> 75
20,"O=C(N[C@@H]1CCO[C@]12O[C@H](CO)[C@H](O)[C@H](n1cc(-c3cc(F)c(F)c(F)c3)nn1)[C@H]2O)c1cccc2ccncc12 [Compound A246, N-((4R,5S,7R,8R,9S,10R)-8,10-dihydroxy-7-(hydroxymethyl)-9-(4-(3,4,5-trifluorophenyl)-1H-1,2,3-triazol-1-yl)-1,6-dioxaspiro[4.5]decan-4-yl)isoquinoline-8-carboxamide]",> 75

# Same assay, conditions: Table 3, found values; compound at 20 μM; 60 nM his-galectin-3, 15 nM biotin-ASF; read-out: % Inhibitory activity (at 20 μM)
row,SMILES,inhibition at 20 µM [%]
1,"OC[C@H]1O[C@@]2(CCCN(c3ccc(Cl)cc3)C2)[C@H](O)[C@@H](n2cc(-c3cc(F)c(F)c(F)c3)nn2)[C@H]1O [Compound A224, (2R,3R,4S,5R,6R)-8-(4-chlorophenyl)-2-(hydroxymethyl)-4-(4-(3,4,5-trifluorophenyl)-1H-1,2,3-triazol-1-yl)-1-oxa-8-azaspiro[5.5]undecane-3,5-diol]",24.2
2,"O=C(N[C@@H]1CCO[C@]12O[C@H](CO)[C@H](O)[C@H](n1cc(-c3cc(F)c(F)c(F)c3)nn1)[C@H]2O)c1cccc2occc12 [Compound A230, N-((4R,5S,7R,8R,9S,10R)-8,10-dihydroxy-7-(hydroxymethyl)-9-(4-(3,4,5-trifluorophenyl)-1H-1,2,3-triazol-1-yl)-1,6-dioxaspiro[4.5]decan-4-yl)benzofuran-4-carboxamide]",66.5
3,"Cc1ccc2ccccc2c1C(=O)N[C@@H]1CCO[C@]12O[C@H](CO)[C@H](O)[C@H](n1cc(-c3cc(F)c(F)c(F)c3)nn1)[C@H]2O [Compound A240, N-((4R,5S,7R,8R,9S,10R)-8,10-dihydroxy-7-(hydroxymethyl)-9-(4-(3,4,5-trifluorophenyl)-1H-1,2,3-triazol-1-yl)-1,6-dioxaspiro[4.5]decan-4-yl)-2-methyl-1-naphthamide]",72.1

# Same assay, conditions: read-out: % Inhibitory activity (at 20 μM), Table 2; compound at 20 μM; 60 nM his-galectin-3, 15 nM biotin-ASF
row,SMILES,inhibition at 20 µM [%]
1,"OC[C@H]1O[C@@]2(CCCN(c3ccncn3)C2)[C@H](O)[C@@H](n2cc(-c3cc(F)c(F)c(F)c3)nn2)[C@H]1O [Compound A226, (2R,3R,4S,5R,6R)-2-(hydroxymethyl)-8-(pyrimidin-4-yl)-4-(4-(3,4,5-trifluorophenyl)-1H-1,2,3-triazol-1-yl)-1-oxa-8-azaspiro[5.5]undecane-3,5-diol]",< 25
